Data published in PubChem BioAssay (NCI).
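Exposure lasted 48 hours, with cells grown in 96-well plates and compounds tested at five concentrations. TGI: total growth inhibition.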

Legend:
Assay in all cases: NCI-60 cell line screen, 48 h
[1] = tested on: 786-0 renal
[2] = tested on: A498 renal
[3] = tested on: A549 NSCLC
[4] = tested on: ACHN renal
[5] = tested on: CAKI-1 renal
[6] = tested on: CCRF-CEM leukemia
[7] = tested on: COLO 205 colon
[8] = tested on: DLD-1 colon
[9] = tested on: DMS 114 small cell lung
[10] = tested on: DMS 273 small cell lung
[11] = tested on: EKVX NSCLC
[12] = tested on: HCC-2998 colon
[13] = tested on: HCT-116 colon
[14] = tested on: HL-60(TB) leukemia
[15] = tested on: HOP-62 NSCLC
[16] = tested on: HOP-92 NSCLC
[17] = tested on: K-562 leukemia
[18] = tested on: KM12 colon
[19] = tested on: KM20L2 colon
[20] = tested on: LOX IMVI melanoma
[21] = tested on: LXFL 529 NSCLC
[22] = tested on: M14 melanoma
[23] = tested on: M19-MEL melanoma
[24] = tested on: MALME-3M melanoma
[25] = tested on: MOLT-4 leukemia
[26] = tested on: NCI-H226 lung
[27] = tested on: NCI-H23 lung
[28] = tested on: NCI-H460 lung
[29] = tested on: NCI-H522 lung
[30] = tested on: OVCAR-3 ovarian
[31] = tested on: OVCAR-4 ovarian
[32] = tested on: OVCAR-5 ovarian
[33] = tested on: OVCAR-8 ovarian
[34] = tested on: RPMI-8226 leukemia
[35] = tested on: SF-268 CNS
[36] = tested on: SF-539 CNS
[37] = tested on: SK-MEL-2 melanoma
[38] = tested on: SK-MEL-28 melanoma
[39] = tested on: SK-MEL-5 melanoma
[40] = tested on: SK-OV-3 ovarian
[41] = tested on: SN12C renal
[42] = tested on: SNB-19 CNS
[43] = tested on: SNB-75 CNS
[44] = tested on: SNB-78 CNS
[45] = tested on: SR leukemia
[46] = tested on: SW-620 colon
[47] = tested on: TK-10 renal
[48] = tested on: U251 CNS
[49] = tested on: UACC-257 melanoma
[50] = tested on: UACC-62 melanoma
[51] = tested on: UO-31 renal
[52] = tested on: XF 498 CNS
[53] = tested on: HOP-18 NSCLC
[54] = tested on: HT29 colon
[55] = tested on: IGROV1 ovarian
[56] = tested on: SF-295 CNS
[57] = tested on: DU-145 prostate
[58] = tested on: HCT-15 colon
[59] = tested on: RXF 393 renal

CCN(CC)CC1CCCCN1CC(=O)N1c2cc(Cl)ccc2NC(=O)CC1C (stereo not drawn)
TGI [1]: > 100 µM | TGI [2]: > 100 µM | TGI [3]: > 100 µM | TGI [4]: > 100 µM | TGI [5]: > 100 µM | TGI [6]: > 100 µM | TGI [7]: > 100 µM | TGI [8]: > 100 µM | TGI [9]: > 100 µM | TGI [10]: > 100 µM | TGI [11]: > 100 µM | TGI [12]: > 100 µM | TGI [13]: > 100 µM | TGI [14]: > 100 µM | TGI [15]: > 100 µM | TGI [16]: > 100 µM | TGI [17]: > 100 µM | TGI [18]: > 100 µM | TGI [19]: > 100 µM | TGI [20]: > 100 µM | TGI [21]: > 100 µM | TGI [22]: > 100 µM | TGI [23]: > 100 µM | TGI [24]: > 100 µM | TGI [25]: > 100 µM | TGI [26]: > 100 µM | TGI [27]: > 100 µM | TGI [28]: > 100 µM | TGI [29]: > 100 µM | TGI [30]: > 100 µM | TGI [31]: > 100 µM | TGI [32]: > 100 µM | TGI [33]: > 100 µM | TGI [34]: > 100 µM | TGI [35]: > 100 µM | TGI [36]: > 100 µM | TGI [37]: > 100 µM | TGI [38]: > 100 µM | TGI [39]: > 100 µM | TGI [40]: > 100 µM | TGI [41]: > 100 µM | TGI [42]: > 100 µM | TGI [43]: > 100 µM | TGI [44]: > 100 µM | TGI [45]: > 100 µM | TGI [46]: > 100 µM | TGI [47]: > 100 µM | TGI [48]: > 100 µM | TGI [49]: > 100 µM | TGI [50]: > 100 µM | TGI [51]: > 100 µM | TGI [52]: > 100 µM

C/C(NNC(=O)c1ccccc1O)=C1\C=Nc2ccccc2S1
TGI [1]: 29.3 µM | TGI [2]: > 100 µM | TGI [3]: 28.2 µM | TGI [4]: > 100 µM | TGI [5]: > 100 µM | TGI [6]: > 100 µM | TGI [8]: > 100 µM | TGI [10]: > 100 µM | TGI [11]: > 100 µM | TGI [12]: 7.45 µM | TGI [13]: > 100 µM | TGI [14]: 41.9 µM | TGI [53]: 49.6 µM | TGI [15]: > 100 µM | TGI [54]: > 100 µM | TGI [55]: > 100 µM | TGI [17]: > 100 µM | TGI [18]: > 100 µM | TGI [19]: > 100 µM | TGI [20]: > 100 µM | TGI [21]: > 100 µM | TGI [22]: 31.1 µM | TGI [23]: > 100 µM | TGI [24]: 27.6 µM | TGI [25]: > 100 µM | TGI [26]: 33.1 µM | TGI [27]: > 100 µM | TGI [28]: 24.7 µM | TGI [29]: > 100 µM | TGI [30]: > 100 µM | TGI [31]: > 100 µM | TGI [32]: > 100 µM | TGI [33]: > 100 µM | TGI [34]: > 100 µM | TGI [35]: > 100 µM | TGI [56]: > 100 µM | TGI [36]: 7.81 µM | TGI [37]: 6.79 µM | TGI [38]: > 100 µM | TGI [39]: > 100 µM | TGI [40]: > 100 µM | TGI [41]: 55.6 µM | TGI [42]: > 100 µM | TGI [43]: 43.8 µM | TGI [44]: > 100 µM | TGI [45]: > 100 µM | TGI [46]: > 100 µM | TGI [47]: > 100 µM | TGI [48]: > 100 µM | TGI [49]: > 100 µM | TGI [50]: 9.61 µM | TGI [51]: 5.68 µM | TGI [52]: > 100 µM

O/N=C1/CCCC/C1=C/C=C/c1ccccc1
TGI [1]: 55 µM | TGI [2]: 41.2 µM | TGI [3]: 54.9 µM | TGI [4]: 72.5 µM | TGI [5]: > 100 µM | TGI [6]: 67 µM | TGI [7]: 35.4 µM | TGI [8]: > 100 µM | TGI [57]: 62.9 µM | TGI [12]: 45.2 µM | TGI [13]: 29.7 µM | TGI [58]: 36.2 µM | TGI [14]: 41.2 µM | TGI [53]: 78.1 µM | TGI [16]: 36.7 µM | TGI [54]: 32.9 µM | TGI [55]: 36.8 µM | TGI [17]: 96.1 µM | TGI [18]: 47.1 µM | TGI [19]: 33.3 µM | TGI [20]: 31.3 µM | TGI [21]: > 100 µM | TGI [22]: 40.9 µM | TGI [23]: 43.8 µM | TGI [24]: 41 µM | TGI [25]: 67.1 µM | TGI [26]: 60.7 µM | TGI [27]: 60.5 µM | TGI [28]: 53.8 µM | TGI [29]: 34.1 µM | TGI [30]: 35.2 µM | TGI [31]: > 100 µM | TGI [32]: 76 µM | TGI [33]: > 100 µM | TGI [34]: 71.7 µM | TGI [59]: 41.5 µM | TGI [35]: 47.1 µM | TGI [56]: 69.8 µM | TGI [36]: 38.3 µM | TGI [37]: 36.6 µM | TGI [38]: 10.2 µM | TGI [39]: 30.2 µM | TGI [40]: > 100 µM | TGI [41]: 33.4 µM | TGI [42]: > 100 µM | TGI [43]: 75.3 µM | TGI [44]: 77.7 µM | TGI [45]: > 100 µM | TGI [46]: 77.1 µM | TGI [47]: 62 µM | TGI [48]: 32.3 µM | TGI [49]: 64 µM | TGI [50]: 40.8 µM | TGI [51]: 49.4 µM

CC(=O)OCCOCn1c2ccccc2c2c3c(c4c5ccccc5n(COCCOC(C)=O)c4c21)C(=O)N(Cc1ccccc1)C3=O
TGI [1]: > 100 µM | TGI [2]: > 100 µM | TGI [3]: > 100 µM | TGI [4]: > 100 µM | TGI [6]: > 100 µM | TGI [7]: > 100 µM | TGI [8]: > 100 µM | TGI [10]: > 100 µM | TGI [11]: > 100 µM | TGI [12]: > 100 µM | TGI [13]: > 100 µM | TGI [58]: > 100 µM | TGI [14]: > 100 µM | TGI [15]: > 100 µM | TGI [16]: > 100 µM | TGI [54]: > 100 µM | TGI [55]: > 100 µM | TGI [17]: > 100 µM | TGI [19]: > 100 µM | TGI [20]: > 100 µM | TGI [21]: > 100 µM | TGI [22]: > 100 µM | TGI [23]: > 100 µM | TGI [24]: > 100 µM | TGI [25]: > 100 µM | TGI [26]: > 100 µM | TGI [27]: > 100 µM | TGI [28]: > 100 µM | TGI [31]: > 100 µM | TGI [32]: > 100 µM | TGI [33]: > 100 µM | TGI [34]: > 100 µM | TGI [59]: > 100 µM | TGI [35]: > 100 µM | TGI [36]: > 100 µM | TGI [37]: > 100 µM | TGI [38]: > 100 µM | TGI [39]: > 100 µM | TGI [40]: > 100 µM | TGI [41]: > 100 µM | TGI [42]: > 100 µM | TGI [43]: > 100 µM | TGI [44]: > 100 µM | TGI [46]: > 100 µM | TGI [47]: > 100 µM | TGI [48]: > 100 µM | TGI [49]: > 100 µM | TGI [50]: > 100 µM | TGI [51]: > 100 µM
